In patent US10173991B2, “Sulfone amide linked benzothiazole inhibitors of endothelial lipase” (BRISTOL-MYERS SQUIBB COMPANY, priority 2014, dated 2019):

molecular target: Endothelial lipase (EL) (Homo sapiens (Human), UniProt Q9Y5X9); assay: Endothelial lipase (EL) enzymatic assay with fluorescent substrate A10070 in DMPG vesicles; assay type: biochemical
In short: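 Compounds were preincubated with enzyme for 30 min at 37° C before FRET-substrate vesicles (A10070 in DMPG, 0.11 mole fraction) were added. Reaction rates were obtained from the 300–900 sec slope of fluorescence at 490/530 nm.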

Endothelial lipase (EL), sequence (Q9Y5X9 21-500): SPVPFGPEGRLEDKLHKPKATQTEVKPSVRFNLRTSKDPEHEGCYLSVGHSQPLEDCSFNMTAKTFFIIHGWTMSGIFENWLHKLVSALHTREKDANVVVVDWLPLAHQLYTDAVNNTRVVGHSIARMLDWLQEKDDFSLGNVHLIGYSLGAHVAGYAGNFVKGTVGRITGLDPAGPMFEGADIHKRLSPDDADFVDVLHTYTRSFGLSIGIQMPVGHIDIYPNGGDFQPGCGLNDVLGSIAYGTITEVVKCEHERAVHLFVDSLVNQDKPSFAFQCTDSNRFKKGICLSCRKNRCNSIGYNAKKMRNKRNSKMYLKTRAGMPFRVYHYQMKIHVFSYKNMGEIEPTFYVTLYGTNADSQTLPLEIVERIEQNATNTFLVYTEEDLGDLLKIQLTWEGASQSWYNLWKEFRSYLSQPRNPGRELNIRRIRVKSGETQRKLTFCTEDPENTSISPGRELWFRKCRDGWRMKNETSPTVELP

IC50 [nM]	SMILES
27	CC(C)S(=O)(=O)C(C(=O)NCC(=O)NC1CC1)c1nc2cc(C(F)(F)F)c(-c3ccc(F)nc3)cc2s1 (stereo not drawn) [Example 170, N-[(cyclopropyl-carbamoyl)methyl]-2-[6-(6-fluoropyridin-3-yl)-5-(trifluoromethyl)-1,3-benzothiazol-2-yl]-2-(propane-2-sulfonyl) acetamide]
5	COC(=O)Nc1ccc(-c2cc3sc(C(C(=O)NCC(=O)NC4CC4)S(C)(=O)=O)nc3cc2OC(F)F)cc1 (stereo not drawn) [Example 607, methyl N-{4-[2-({[(cyclopropyl-carbamoyl)methyl]carbamoyl} (methanesulfonyl)methyl)-5-(difluoromethoxy)-1,3-benzothiazol-6-yl]phenyl} carbamate]
18	COCCS(=O)(=O)C(C(=O)NCC(=O)NC1CC1)c1nc2cc(-c3ccc(-c4ccn[nH]4)cc3)c(F)cc2s1 (stereo not drawn) [Example 130, N-[(cyclopropyl-carbamoyl)methyl]-2-{6-fluoro-5-[4-(1H-pyrazol-5-yl)phenyl]-1,3-benzothiazol-2-yl}-2-(2-methoxyethane-sulfonyl) acetamide]
1	CS(=O)(=O)C(C(=O)NCC(=O)NC1CC1)c1nc2cc(F)c(-c3ccc(NC(=O)CCc4ccccc4)cc3)cc2s1 (stereo not drawn) [Example 576, N-{4-[2-({[(cyclopropyl-carbamoyl)methyl]carbamoyl} (methanesulfonyl)methyl)-5-fluoro-1,3-benzothiazol-6-yl]phenyl}-3-phenyl-propanamide]
16	CC(C)S(=O)(=O)C(C(=O)NCC(=O)NC1CC1)c1nc2cc(F)c(-c3ccc4c(c3)C(=O)NC4)cc2s1 (stereo not drawn) [Example 239, N-[(cyclopropyl-carbamoyl)methyl]-2-[5-fluoro-6-(3-oxo-2,3-dihydro-1H-isoindol-5-yl)-1,3-benzothiazol-2-yl]-2-(propane-2-sulfonyl)acetamide]
18	CS(=O)(=O)C(C(=O)NCC(=O)NC1CC1)c1nc2cc(OC(F)F)c(-c3ccc(F)nc3)cc2s1 (stereo not drawn) [Example 602, N-[(cyclopropyl-carbamoyl)methyl]-2-[5-(difluoromethoxy)-6-(6-fluoropyridin-3-yl)-1,3-benzothiazol-2-yl]-2-methanesulfonyl-acetamide]
5	CC(C)S(=O)(=O)C(C(=O)NCC(=O)NC1CC1)c1nc2cc(-c3ccc4c(=O)n(C)ccc4c3)c(F)cc2s1 (stereo not drawn) [Example 267, N-[(cyclopropyl-carbamoyl)methyl]-2-[6-fluoro-5-(2-methyl-1-oxo-1,2-dihydro-isoquinolin-6-yl)-1,3-benzothiazol-2-yl]-2-(propane-2-sulfonyl) acetamide]
3	COCCS(=O)(=O)C(C(=O)NCC(=O)NC1CC1)c1nc2cc(F)c(-c3ccc(C(=O)N4CC(C)(O)C4)cc3)cc2s1 (stereo not drawn) [Example 565, N-[(cyclopropyl-carbamoyl)methyl]-2-{5-fluoro-6-[4-(3-hydroxy-3-methylazetidine-1-carbonyl)phenyl]-1,3-benzothiazol-2-yl}-2-(2-methoxyethane-sulfonyl)acetamide]
9	CC(C)S(=O)(=O)C(C(=O)NCC(=O)NC1CC1)c1nc2cc(-c3ccc4[nH]c(=O)ccc4c3)c(F)cc2s1 (stereo not drawn) [Example 270, N-[(cyclopropyl-carbamoyl)methyl]-2-[6-fluoro-5-(2-oxo-1,2-dihydroquinolin-6-yl)-1,3-benzothiazol-2-yl]-2-(propane-2-sulfonyl)acetamide]
22	CS(=O)(=O)C(C(=O)NCC(=O)NC1CC1)c1nc2cc(F)c(-c3ccc(C(N)=O)c(Cl)c3)cc2s1 (stereo not drawn) [Example 328, 2-chloro-4-[2-({[(cyclopropyl-carbamoyl)methyl]carbamoyl} (methanesulfonyl)methyl)-5-fluoro-1,3-benzothiazol-6-yl]benzamide]
9	COCCS(=O)(=O)C(C(=O)NCC(=O)NC1CC1)c1nc2cc(F)c(-c3ccc(-c4nnn(C)n4)cc3)cc2s1 (stereo not drawn) [Example 593, N-[(cyclopropyl-carbamoyl)methyl]-2-{5-fluoro-6-[4-(2-methyl-2H-1,2,3,4-tetrazol-5-yl)phenyl]-1,3-benzothiazol-2-yl}-2-(2-methoxyethane-sulfonyl)acetamide]
36	COCCS(=O)(=O)C(C(=O)NCC(=O)NC1CC1)c1nc2cc(F)c(-c3ccc(-n4ccnc4)cc3)cc2s1 (stereo not drawn) [Example 581, N-[(cyclopropyl-carbamoyl)methyl]-2-{5-fluoro-6-[4-(1H-imidazol-1-yl)phenyl]-1,3-benzothiazol-2-yl}-2-(2-methoxyethane-sulfonyl)acetamide]

More lines, now with the values behind:

SMILES	IC50 [nM]
O=C(CNC(=O)C(c1nc2cc(F)c(-c3ccc(NC(=O)OCc4ccccc4)cc3)cc2s1)S(=O)(=O)CCN1CCOCC1)NC1CC1 (stereo not drawn) [Example 423, benzyl N-{4-[2-({[(cyclopropyl-carbamoyl)methyl]carbamoyl}[2-(morpholin-4-yl)ethanesulfonyl]methyl)-5-fluoro-1,3-benzothiazol-6-yl]phenyl} carbamate]	1
COCCS(=O)(=O)C(C(=O)NCC(=O)NC1CC1)c1nc2cc(C(F)(F)F)c(-c3ccnn3C)cc2s1 (stereo not drawn) [Example 162, N-[(cyclopropyl-carbamoyl)methyl]-2-(2-methoxyethane-sulfonyl)-2-[6-(1-methyl-1H-pyrazol-5-yl)-5-(trifluoromethyl)-1,3-benzothiazol-2-yl]acetamide]	16
Cc1nn(-c2ccc(-c3cc4sc(C(C(=O)NCC(=O)NC5CC5)S(=O)(=O)CCC(F)(F)F)nc4cc3F)cc2)c(N)c1C#N (stereo not drawn) [Example 587, 2-{6-[4-(5-amino-4-cyano-3-methyl-1H-pyrazol-1-yl)phenyl]-5-fluoro-1,3-benzothiazol-2-yl}-N-[(cyclopropyl-carbamoyl)methyl]-2-(3,3,3-trifluoropropane-sulfonyl)acetamide]	3
COCCS(=O)(=O)C(C(=O)NCC(=O)NC1CC1)c1nc2cc(F)c(-c3ccc(NC(=O)OCc4ccccn4)cc3)cc2s1 (stereo not drawn) [Example 519, pyridin-2-ylmethyl N-{4-[2-({[(cyclopropyl-carbamoyl)methyl]carbamoyl}(2-methoxyethane-sulfonyl)methyl)-5-fluoro-1,3-benzothiazol-6-yl]phenyl}carbamate]	2
COCCS(=O)(=O)C(C(=O)NCC(=O)NC1CC1)c1nc2ccc(-c3ccc(C(=O)N4CC[C@H](OC)C4)cc3)cc2s1 (stereo partly drawn) [Example 403, N-[(cyclopropyl-carbamoyl)methyl]-2-(2-methoxyethane-sulfonyl)-2-(6-{4-[(3S)-3-methoxy-pyrrolidine-1-carbonyl]phenyl}-1,3-benzothiazol-2-yl)acetamide]	8
COCCS(=O)(=O)C(C(=O)NCC(=O)NC1CC1)c1nc2cc(F)c(-c3ccc4c(c3)CCCN4C(=O)OC(C)(C)C)cc2s1 (stereo not drawn) [Example 418, tert-butyl 6-[2-({[(cyclopropyl-carbamoyl)methyl]carbamoyl}(2-methoxyethane-sulfonyl)methyl)-5-fluoro-1,3-benzothiazol-6-yl]-1,2,3,4-tetrahydro-quinoline-1-carboxylate]	9
O=C(CNC(=O)C(c1nc2cc(F)c(-c3ccc(-n4nc(C(F)(F)F)cc4C(=O)O)cc3)cc2s1)S(=O)(=O)CCC(F)(F)F)NC1CC1 (stereo not drawn) [Example 588, 1-{4-[2-({[(cyclopropyl-carbamoyl)methyl]carbamoyl}(3,3,3-trifluoropropane-sulfonyl)methyl)-5-fluoro-1,3-benzothiazol-6-yl]phenyl}-3-(trifluoromethyl)-1H-pyrazole-5-carboxylic acid]	6
O=C1Cc2ccc(-c3ccc4nc(C(C(=O)NCC(=O)NC5CC5)S(=O)(=O)c5ccc(F)cc5)sc4c3)cc2N1 (stereo not drawn) [Example 453, N-[(cyclopropyl-carbamoyl)methyl]-2-(4-fluorobenzene-sulfonyl)-2-[6-(2-oxo-2,3-dihydro-1H-indol-6-yl)-1,3-benzothiazol-2-yl]acetamide]	67
COCCS(=O)(=O)C(C(=O)NCC(=O)NC1CC1)c1nc2c(F)cc(-c3ccc(=O)n(C(C)C)c3)cc2s1 (stereo not drawn) [Example 225, N-[(cyclopropyl-carbamoyl)methyl]-2-{4-fluoro-6-[6-oxo-1-(propan-2-yl)-1,6-dihydropyridin-3-yl]-1,3-benzothiazol-2-yl}-2-(2-methoxyethane-sulfonyl) acetamide]	88
COC(=O)Nc1ccc(-c2ccc3nc(C(C(=O)NCC(=O)NC4CC4)S(C)(=O)=O)sc3c2)cc1 (stereo not drawn) [Example 95, methyl N-{4-[2-({[(cyclopropyl-carbamoyl)methyl]carbamoyl} (methanesulfonyl)methyl)-1,3-benzothiazol-6-yl]phenyl}carbamate]	2
Cc1cc(-c2cc(F)c3nc(C(C(=O)NCC(=O)NC4CC4)S(=O)(=O)N(C)C)sc3c2)cnn1 (stereo not drawn) [Example 490, N-[(cyclopropyl-carbamoyl)methyl]-2-(dimethyl-sulfamoyl)-2-[4-fluoro-6-(6-methypylridazin-4-yl)-1,3-benzothiazol-2-yl]acetamide]	207
O=C(CNC(=O)C(c1nc2cc(F)c(-c3ccc(-n4cccn4)cc3)cc2s1)S(=O)(=O)CCC(F)(F)F)NC1CC1 (stereo not drawn) [Example 138, N-[(cyclopropyl-carbamoyl)methyl]-2-{5-fluoro-6-[4-(1H-pyrazol-1-yl)phenyl]-1,3-benzothiazol-2-yl}-2-(3,3,3-trifluoropropane-sulfonyl) acetamide]	6
COCCNC(=O)CNC(=O)C(c1nc2ccc(-c3ccc(F)nc3)cc2s1)S(=O)(=O)CCOC (stereo not drawn) [Example 379, 2-[6-(6-fluoropyridin-3-yl)-1,3-benzothiazol-2-yl]-2-(2-methoxyethane-sulfonyl)-N-{[(2-methoxyethyl)carbamoyl]methyl} acetamide]	108
COCCS(=O)(=O)C(C(=O)NCC(=O)NC1CC1)c1nc2ccc(-c3ccncc3)cc2s1 (stereo not drawn) [Example 289, N-[(cyclopropyl-carbamoyl)methyl]-2-(2-methoxyethane-sulfonyl)-2-[6-(pyridin-4-yl)-1,3-benzothiazol-2-yl] acetamide]	23
COCCS(=O)(=O)C(C(=O)NCC(=O)NC1CC1)c1nc2cc(Cl)c(-c3ccnn3C)cc2s1 (stereo not drawn) [Example 107]	34
